The nature of data set [1]: Cytotoxicity assay (MTT) on fresh spleen cells. It counts as cell-based, mice. Conditions: BALB/C, fresh spleen cells (T-lymphocytes); T-lymphocyte (mouse spleen cells), 48 h, MTT. The procedure: (§1) Supplementary Figure 62. Inhibition of the growth of T-lymphocytes by synthetic compounds 1, 31, and 41-43. […]
(§2) Bioassay for the immunosuppressive activities17
(§3) Preparation of spleen cells from mice
(§4) BALB/C mice were sacrificed and spleens were removed aseptically. A single cell suspension was prepared after cell debris and clumps were removed. Erythrocytes were lysed using ammonium chloride buffer solution. The isolated lymphocytes were washed 3 times with PBS containing 2% FBS, and were re-suspended in RPMI 1640 medium at the indicated concentration.
(§5) Fresh spleen cells ([…]) were cultured in 96-well flat plates with 200 µL of RPMI 1640 media containing 10% FBS, 100 U/mL penicillin and 100 µg/mL streptomycin in a humidified, 37 °C, 5% CO2-containing incubator for 48 h, in the presence or absence of various concentrations of the compounds. 18 µL of MTT (5 mg/mL) was added to each well at the final 5 h culture. Then 90 µ L of lysis buffer (10% SDS, 50% DMF, pH 7.2) was added to each well for 6–7 h and the absorbance values at 570 nm were read by microplate reader (Bio-Rad, Model 550). […]

Data set [2] relates to ConA-induced T-lymphocyte proliferation (spleen cells from BALB/C mice). Nature of the data set: T cell function assay: ConA-induced T-lymphocyte proliferation ([3H]-thymidine uptake). It counts as cell-based. The following applies: for IC50: Mus musculus, ConA (5 μg/mL)-induced T-lymphocyte proliferation, 48 h, [3H]-thymidine uptake. The procedure: Supplementary Figure 63. Inhibition of concanavalin A (ConA)-induced
T-lymphocyte proliferation by synthetic compounds 1, 31, and 41-43.
as §2, §3
BALB/C mice were sacrificed and spleens were removed aseptically. A single cell suspension was prepared after cell debris and clumps were removed. Erythrocytes were lysed using ammonium chloride buffer solution. The isolated lymphocytes were washed 3 times with PBS containing 2% FBS, and were re-suspended in RPMI 1640 medium at the indicated concentration. […]
1 x 10^6 of fresh spleen cells were cultured for 48 h at the same conditions as mentioned above. The cultures were stimulated with 5 µg/mL of concanavalin A (ConA) to induce T cells proliferative responses. The compounds were added to cultures with indicated concentrations to test their bioactivities. Proliferation was assessed in terms of uptake of [3H]-thymidine during last 8 h culture pulsing with 25 µCi of [3H]-thymidine for each well, and then cells were harvested onto glass fiber filters by a Basic 96 harvester. The incorporated radioactivity was counted by a liquid scintillation counter (1540 MicroBeta Trilux, Perkin–Elmer Life Sciences).

The test system of data set [3] is T-lymphocyte (spleen cells from BALB/C mice). Description: Cytotoxicity assay (MTT) on fresh spleen cells. The format is cell-based. Conditions: synthetic vs natural periploside A. How it is done:
as §1, §2, §3, §4, §5

For data set [4], the system named is ConA-induced T cell proliferation. On the set-up: method as in PMID 18835000, PMID 21843896. The following applies: natural product, cited from earlier work.
The test system of a further data set is mice models. On the set-up: method as in PMID 16204471, PMID 16751252. Conditions: cited from earlier work.
A further data set relates to T cell. On the set-up: method as in PMID 18835000, PMID 21843896. Conditions: toxicity; natural product; cited from earlier work.

One may read the CC50 as the concentration at which the toxic effect on the cells reaches its halfway point. By IC50 is commonly meant the concentration that inhibits the measured activity by half. The compound `CO[C@@H]1C[C@]2(OCO[C@@H]3C[C@@H](O[C@@H](C)[C@@]4(O)CCC5C6CC=C7C[C@@H](O)CC[C@]7(C)C6CC[C@@]54C)O[C@H](C)[C@H]3O2)O[C@H](C)[C@H]1O` (stereo partly shown) [Disaccharide 43] had a 50% cytotoxic concentration (CC50) at 48 h in data set [1] of 27.7 ± 6.61 µM. This compound displayed an IC50 in data set [2] of 3700 ± 2250 nM.

`CO[C@@H]1C[C@]2(OCO[C@@H]3C[C@H](O[C@@H](C)[C@@]4(O)CCC5C6CC=C7C[C@@H](O)CC[C@]7(C)C6CC[C@@]54C)O[C@H](C)[C@H]3O2)O[C@H](C)[C@H]1O` (stereo partly shown) [Disaccharide 42]: the 50% cytotoxic concentration (CC50) at 48 h in data set [1] is 12.8 ± 0.52 µM. This compound also showed an IC50 in data set [2] of 6200 ± 3200 nM.

The compound `CO[C@H]1[C@@H](O)[C@@H](C)O[C@@H](O[C@H]2[C@@H](OC)C[C@H](O[C@H]3[C@@H](OC)C[C@H](O[C@H]4[C@@H](OC)C[C@H](O[C@@H]5[C@@H](C)O[C@]6(C[C@H]5OC)OCO[C@@H]5C[C@H](O[C@@H](C)[C@@]7(O)CCC8C9CC=C%10C[C@@H](O)CC[C@]%10(C)C9CC[C@@]87C)O[C@H](C)[C@H]5O6)O[C@@H]4C)O[C@@H]3C)O[C@@H]2C)[C@@H]1OC(C)=O` (stereo partly drawn) [C1′′-epi-periploside A (31), C1′′-epi-periploside A] gave a half-maximal cytotoxic concentration (CC50) at 48 h in data set [1] of 1.58 ± 0.19 µM. The 50% inhibitory concentration (IC50) in data set [2] turned out to be 410 ± 150 nM.

`CO[C@H]1[C@@H](O)[C@@H](C)O[C@@H](O[C@H]2[C@@H](OC)C[C@H](O[C@H]3[C@@H](OC)C[C@H](O[C@H]4[C@@H](OC)C[C@@H](O[C@@H]5[C@@H](C)O[C@@]6(C[C@H]5OC)OCO[C@@H]5C[C@H](O[C@@H](C)[C@@]7(O)CCC8C9CC=C%10C[C@@H](O)CC[C@]%10(C)C9CC[C@@]87C)O[C@H](C)[C@H]5O6)O[C@@H]4C)O[C@@H]3C)O[C@@H]2C)[C@@H]1OC(C)=O` (stereo partly drawn) [C1′′′-epi-periploside A (41), C1′′′-epi-periploside A] gave a CC50 at 48 h in data set [1] of 11.4 ± 3.66 µM. This compound also registered an IC50 in data set [2] of 1960 ± 430 nM.

`COC1CC(OC2C(C)OC3(CC2OC)OCOC2CC(OC(C)C4(O)CCC5C6CC=C7CC(O)CCC7(C)C6CCC54C)OC(C)C2O3)OC(C)C1OC1CC(OC)C(OC2CC(OC)C(OC3OC(C)C(O)C(OC)C3OC(C)=O)C(C)O2)C(C)O1` (stereo not shown) [Periploside A (1), Periploside A]: the “toxicity against T-lymphocyte compared with the natural product” value in data set [3] is listed as “similar”. Moreover, the midpoint of cytotoxicity in data set [1], the CC50 at 48 h, lay at 2.1 ± 0.32 µM. Besides, the IC50 in data set [4] (ConA-induced T cell proliferation) is 640 nM; in data set [2], 170 ± 40 nM. In addition, in data set [4], the “inhibition of ConA-induced T cell proliferation compared with reference drugs” value is “as potently as rapamycin and cyclosporin A”. The “immunosuppressive effects in mice models” value in the data set on mice models was “significant”. In addition, in the data set on T cell, the CC50 is 10.1 µM. Further, in data set [2] (synthetic vs natural periploside A), the “activity against ConA-induced T-lymphocyte proliferation compared with the natural product” value was “similar”.

Source of the values: PMC4309423, “Total synthesis of periploside A, a unique pregnane hexasaccharide with potent immunosuppressive effects” (Nature Communications, 2015).
